Test results published in patent publication US12350253B2, “Use of cannabinoids in the treatment of dyskinesia associated with parkinson's disease” (Jazz Pharmaceuticals Research UK Limited, priority 2019, dated 2025).
Entries after “also recorded” stand apart in the source; their conditions may differ.

How the values were obtained:
[1] = test system: nigral neurons; conditions: various experimental models of PD; cited from earlier work
[2] = test system: FosB; assay: FosB immunostaining in striatum; assay type: in vivo, mice; conditions: chronic THCV with L-DOPA vs chronic L-DOPA
Method: (§1) Following behavioral analysis, animals were euthanized 1 hour after the last injection of L-DOPA. The brains were post-fixed for 24 h and were then transferred to a solution of 0.1 M phosphate buffer containing 0.02% sodium azide for storage at 4° C. To obtain regular blocks, brains were further immersed in 3% agarose and cut in coronal sections (30 μm thick) using a vibratome.
(§2) Immunostaining was carried out in free-floating sections using a standard avidin-biotin immunocytochemical protocol with the following rabbit antisera: (i) FosB (1:7500), and (ii) anti phospho(Ser10)-acetyl (Lys14)-Hystone 3 (pAcH3; 1:500).
(§3) After incubation with primary antibody (overnight), the sections were washed and incubated with biotinylated secondary anti-rabbit antibody (1:500) for 1 h at room temperature. After washing, the sections were incubated with streptavidin for 1 h and antibody staining was developed using DAB.
For immunostaining quantification in the completely denervated area, we used the Neurolucida software. […]
(§4) Regarding the quantification of FosB and pAcH3 immunoreactivity, it was carried out using an image analysis system.
(§5) For all sides, immunostaining intensity and number of immunolabeled nuclei were determined using five serial rostrocaudal sections per animal and three counting frames (dorsal, dorsolateral and lateral) per section (0.091 mm2 each frame). […]

[3] = test system: Pitx3−/− mice; assay: Rotarod test (motor coordination); assay type: in vivo; conditions: THCV co-administered with L-DOPA; after 12 days of daily treatment; vs L-DOPA
Method: (§6) In a first experiment, animals were treated with an i.p. injection of 10 mg/kg of benserazide hydrochloride followed 20 minutes later by a second i.p. injection of 10 mg/kg of L-DOPA methyl ester. Separate groups of animals received equivalent injections with vehicle (saline) used as controls. Both L-DOPA- and vehicle-treated mice received, 10 minutes after the second injection, a third i.p. injection of THCV (2 mg/kg) or vehicle (Tween 80-saline). The same treatment schedule was repeated daily during approximately two weeks.
Motor coordination was tested using a rotarod. The rotarod was set at a constant speed (10 revolutions per minute) and latency to fall from the rod was assessed. Cut off time was 180 seconds. Before testing, mice were previously habituated in one training session, as described previously.

[4] = test system: Pitx3−/− mice; assay: Locomotor activity (multicage activity meter); assay type: in vivo
Method: as §6
Horizontal and vertical activities were recorded, using a multicage activity meter system consisting of a set of 8 individual cages measuring 20×20×28 cm. Animals were introduced in the actimeter 60 minutes after L-DOPA injection and were assessed for 30 minutes. Horizontal movement was detected by 2 arrays of 16 infrared beams, whereas a third array positioned 4 cm above the floor detected vertical movement.
The software is capable of differentiating between repetitive interruptions of the same photobeam and interruptions of adjacent photobeams. The latter measure was used as an index of ambulatory activity.

[5] = test system: phospho(Ser10)-acetyl (Lys14)-Hystone 3 (pAcH3); assay: pAcH3 immunostaining in striatum; assay type: in vivo, mice; conditions: chronic THCV with L-DOPA vs chronic L-DOPA
Method: as §1, §2, §3, §4
as §5, with “frame). Images were digitized with Leica microscope under 40× lens. Before counting, images were thresholded at a standardized grey-scale level.” for “frame).”

[6] = test system: L-DOPA-induced dyskinesia in Pitx3−/− mice; assay: L-DOPA-induced dyskinesia (AIMs), THCV co-administered daily with L-DOPA; assay type: in vivo; conditions: for duration of AIMs (three/four-paw dyskinetic movements): vs L-DOPA alone
Method: Pitx3^−/− aphakia mice and their wildtype littermates, were genotyped using PCR amplification analysis of tail-tip DNA extracts. Mice were housed under a 12 h dark/light cycle with free access to food and water. They were used for experimental purposes at the age of 4-6 month-old (24-30 g of weight).
as §6
(§7) AIMs were assessed 30 and 60 min after L-DOPA administration. Dyskinesia was scored off-line by a blind rater based on video footage. Ratings were assessed for four minutes at each time point.
(§8) Total dyskinesia was rated by adding the duration in seconds of all three-paw and four-paw dyskinetic bouts. Additionally, on odd days, individual mice were placed in actimeters and motor activity was assessed following drug administration.
On Day 14, we evaluated AIMs every 20 min for 160 min after administering L-DOPA to determine the extinction of this response.

[7] = test system: established L-DOPA-induced dyskinesia in Pitx3−/− mice; assay: Established L-DOPA-induced dyskinesia (AIMs), THCV started after about two weeks of L-DOPA; assay type: in vivo; conditions: 30 min after L-DOPA; for duration of L-DOPA-induced three/four-paw dyskinesia, established dyskinesia: THCV 2 mg/kg from day 14 after 13 days of L-DOPA, vs L-DOPA alone
Method: In a second experiment, benserazide and L-DOPA (and their corresponding vehicles) were administered to mice following the same schedule than in the previous experiment, but THCV, again at the dose of 2 mg/kg, was given for the first time after approximately two weeks of daily benserazide/L-DOPA treatment, with the administration of the three compounds (and vehicles) extending for at least 3 days.
as §7, §8

[8] = test system: parkinsonian rats; conditions: acute treatment; cited from earlier work
[9] = test system: 6-hydroxydopamine rat model of Parkinson's disease; conditions: oral coadministration of L-DOPA and rimonabant; cited from earlier work
[10] = THCV co-administered with L-DOPA, 60 min after L-DOPA, vs L-DOPA

CCCCC/C=C\C/C=C\C/C=C\C/C=C\CCCC(=O)Nc1ccc(O)cc1 [AM404]
protection of nigral neurons from death caused by different insults [1]: able to protect nigral neurons from death

C=C(C)[C@@H]1CCC(C)=C[C@H]1c1c(O)cc(CCCCC)cc1O [CBD, cannabidiol]
protection of nigral neurons from death caused by different insults [1]: able to protect nigral neurons from death

CCCCCCC(C)(C)c1ccc([C@@H]2C[C@H](O)CC[C@H]2CCCO)c(O)c1 [CP55,940]
protection of nigral neurons from death caused by different insults [1]: able to protect nigral neurons from death

CCCCCc1cc(O)c2c(c1)OC(C)(C)[C@@H]1CCC(C)=C[C@@H]21 [THC, tetrahydrocannabinol]
protection of nigral neurons from death caused by different insults [1]: able to protect nigral neurons from death

CCCc1cc(O)c2c(c1)OC(C)(C)[C@@H]1CCC(C)=C[C@@H]21 [THCV, tetrahydrocannabivarin]
immunostaining intensity of FosB-positive cells in striatum [2]: attenuates the immunostaining-intensity of FosB positive nuclei; also recorded: reduction affected both the number and the immunostaining intensity | number of FosB-positive cells in striatum [2]: attenuates the increased expression of FosB-positive cells; also recorded: reduction affected both the number and the immunostaining intensity | rotarod performance (latency to fall) [3]: improved motor coordination in rotarod; also recorded: improved the deteriorated rotarod performance | horizontal activity ([4]; THCV alone vs vehicle): no effect on the horizontal activity | vertical activity ([4]; THCV alone vs vehicle): did elevate vertical activity by itself | horizontal activity [4, 10]: attenuating the elevated horizontal and vertical activities | vertical activity [4, 10]: attenuating the elevated horizontal and vertical activities | immunostaining intensity of pAcH3-positive nuclei in striatum [5]: decreases the intensity of nuclei; also recorded: beneficial effects | number of pAcH3-positive nuclei in striatum [5]: only evident in the intensity of immunostained-nuclei | duration of AIMs (three/four-paw dyskinetic movements) ([6]; 30 min post-L-DOPA, THCV 2 mg/kg i.p. daily with L-DOPA 10 mg/kg i.p., except days 1 and 3): attenuates dyskinesia; also recorded: reduced the duration of AIMs | duration of AIMs (three/four-paw dyskinetic movements) ([6]; 60 min post-L-DOPA, THCV 2 mg/kg i.p. daily with L-DOPA): to a lesser extent; also recorded: significant differences only at days 7 and 13 of treatment | dyskinetic movements with THCV alone ([6]; THCV 2 mg/kg i.p. alone, no L-DOPA): showed no dyskinetic movements | dyskinesias score, acute co-treatment ([6]; day 1 of treatment, 30 min and 60 min, THCV 2 mg/kg with L-DOPA): decreases, but not significantly | time post-treatment up to which difference from L-DOPA alone remained (kinetic profile of AIMs) ([6]; last day of treatment, AIMs every 20 min over 160 min): up to 80 minutes | persistence of the reduction of established dyskinesia ([7]; THCV 2 mg/kg): 3 days | duration of L-DOPA-induced three/four-paw dyskinesia, established dyskinesia [7]: significantly reduced dyskinesia | duration of L-DOPA-induced three/four-paw dyskinesia, established dyskinesia ([7]; listed as Δ9-THCV): active in reducing the duration of L-DOPA-induced three/four-paw dyskinesia | motor inhibition [8]: efficacious in reducing motor inhibition | potency in reducing motor inhibition relative to rimonabant [8]: equivalent to rimonabant

Cc1c(C(=O)NN2CCCCC2)nn(-c2ccc(Cl)cc2Cl)c1-c1ccc(Cl)cc1 [rimonabant]
abnormal involuntary movements and dystonia [9]: decreased abnormal involuntary movements and dystonia
